For orientation: IC50 means the concentration needed to halve the response being measured. Usually EC50 stands for the concentration that produces a half-maximal response. Lower therefore signals a more potent agent.

One assay concerns Caki-1. The assay can be described thus: Cell proliferation assay (MTS or SRB), Caki-1. It is filed as cell-based. Particulars: Homo sapiens, 72 h; Caki-1, Kidney, 3 days; read-out: IC50 (cell growth inhibition). Here is the method: (§1) In vitro cell proliferation assays were performed using a 96-well plate based MTSassay (CellTiter 96° AqueousOne Solution Cell Proliferation Assay, Promega) or SRB (Sulforhodamine-B) assay (1-3). Briefly, cells were plated in 100 μl medium on day 0 in 96-well microtiter plates (Falcon #3072). On day 1, 10 μl of serial dilutions of each compound (Nine 1:2 dilutions with a starting concentration of 100 μM; in some cases, a starting concentration of 400 μM (CMX001 or Cidofovir) or 1 μM (some standard agents)) were added in triplicates to the plates. For standard agents using DMSO as solvent, serial dilutions of DMSO with a starting concentration of 0.5% were also included as a vehicle control.
(§2) After incubation for 3 days at 37° C. in a humidified incubator, viable cells were measured either by MTS or SRB assay. For MTS assay, 20 μl of a 20:1 mixture of (3-(4,5-dimethylthiazol-2-yl)-5-(3-carboxymethoxyphenyl)-2-(4-sulfophenyl)-2H-tetrazolium, inner salt (MTS, 2 mg/ml) and an electron coupling reagent, phenazine methosulfate (PMS, 0.92 mg/ml in DPBS), was added to each well and incubated for 3 hours at 37° C. Absorbance was measured using a BioTek Synergy™ HT Multiple Detection microplate reader at 490 nm. For SRB assay, cells were fixed in situ with 50 μL of cold trichloroacetic acid (TCA, final concentration at 10% w/v) for 60 minutes. Cells were then washed 5 times with H2O and air-dried.
(§3) Next, cells were stained with 20 μL of 0.2% SRB in 1% acetic acid and incubated at room temperature for 30 minutes and unbound SRB was removed by washing 5 times with 1% acetic acid and air-dried. Finally, bound SRB stain was solubilized in 50 μL of 50 μM Tris buffer before taking an optical density measurement at 570 nm using the BioTek microplate reader. The growth inhibition data were expressed as the percentage of cell survival calculated from the background corrected absorbance. The surviving fraction of cells was determined by dividing the mean absorbance values of the test agent-treated samples by the mean absorbance values of untreated control. […]

In a further assay the test system is Caki-2. The assay can be described thus: Cell proliferation assay (MTS or SRB), Caki-2. In kind it is cell-based. The following applies: Homo sapiens, 72 h; Caki-2, Kidney, 3 days; read-out: IC50 (cell growth inhibition). Here is the method:
as §1, §2, §3

For another assay, the system named is SCaBER. Nature of the assay: Cell proliferation assay (MTS or SRB), SCaBER. In kind it is cell-based. The following applies: Homo sapiens, 72 h, Bladder, 3 days, read-out: IC50 (cell growth inhibition). Here is the method: as §1, §2, §3
The test system of a further assay is SW 780. The assay can be described thus: Cell proliferation assay (MTS or SRB), SW 780. In kind it is cell-based. The following applies: Homo sapiens, SW780, 72 h; SW 780, Bladder, 3 days; read-out: IC50 (cell growth inhibition). Here is the method: as §1, §2, §3
A further assay relates to SK-HEP-1. Nature of the assay: Cell proliferation assay (MTS or SRB), SK-HEP-1. It is filed as cell-based. Particulars: Homo sapiens, SK-HEP1, 72 h; SK-HEP-1, Liver, 3 days; read-out: IC50 (cell growth inhibition). Here is the method:
as §1, §2, §3

The test system of another assay is Hep G2. Nature of the assay: Cell proliferation assay (MTS or SRB), Hep G2. It is filed as cell-based. Particulars: Homo sapiens, HepG2, 72 h; Hep G2, Liver, 3 days; read-out: IC50 (cell growth inhibition). On the procedure:
as §1, §2, §3

A further assay relates to HT-29. The assay can be described thus: Cell proliferation assay (MTS or SRB), HT-29. It is filed as cell-based, human. Particulars: HT-29, Colon, 3 days; read-out: IC50 (cell growth inhibition). Here is the method: as §1, §2, §3
The subject of a further assay is HCT-116. Nature of the assay: Cell proliferation assay (MTS or SRB), HCT-116. It is filed as cell-based, human. Particulars: HCT-116, Colon, 3 days; read-out: IC50 (cell growth inhibition). Here is the method: as §1, §2, §3
The next assay concerns BK virus. Nature of the assay: Antiviral activity against BK virus in RPTEC cells (viral DNA by qPCR, 5 days). In kind it is cell-based. The following applies: for EC50: Betapolyomavirus hominis, RPTEC, RPTEC cells. Here is the method:
In order to test the activity of CMX001 to inhibit replication of BK virus, stocks of BK virus were prepared in HFF cells and dilutions of the virus stocks were used to infect primary human renal tubular epithelial cells (RPTECs). CMX001 were then added to the wells containing the infected cells and the plates were incubated for 5 days. Total DNA was prepared from the plates and viral DNA was quantified by qPCR.

The subject of another assay is PANC-1. The assay can be described thus: Cell proliferation assay (MTS or SRB), PANC-1. It is filed as cell-based. Particulars: Homo sapiens, 72 h; PANC-1, Pancreatic, 3 days; read-out: IC50 (cell growth inhibition). On the procedure:
as §1, §2, §3

Another assay has as its system MIA PaCa-2. The assay can be described thus: Cell proliferation assay (MTS or SRB), MIA PaCa-2. Particulars: Homo sapiens, 72 h; MIA PaCa-2, Pancreatic, 3 days; read-out: IC50 (cell growth inhibition). In kind it is cell-based. On the procedure:
as §1, §2, §3

A further assay has as its system DU 145. The assay can be described thus: Cell proliferation assay (MTS or SRB), DU 145. It is filed as cell-based. Particulars: Homo sapiens, 72 h; DU 145, Prostate, 3 days; read-out: IC50 (cell growth inhibition). On the procedure: as §1, §2, §3
In another assay the test system is PC-3. Nature of the assay: Cell proliferation assay (MTS or SRB), PC-3. It is filed as cell-based. The following applies: Homo sapiens, 72 h; PC-3, Prostate, 3 days; read-out: IC50 (cell growth inhibition). Here is the method:
as §1, §2, §3

In a further assay the test system is MDA-231. Nature of the assay: Cell proliferation assay (MTS or SRB), MDA-231. In kind it is cell-based. The following applies: Homo sapiens, MDA-MB-231, 72 h; MDA-231, Breast, 3 days; read-out: IC50 (cell growth inhibition). On the procedure:
as §1, §2, §3

Another assay deals with MCF-7. Nature of the assay: Cell proliferation assay (MTS or SRB), MCF-7. Particulars: Homo sapiens, MCF7, 72 h; MCF-7, Breast, 3 days; read-out: IC50 (cell growth inhibition). It is filed as cell-based. Here is the method:
as §1, §2, §3

Another assay concerns H460. Nature of the assay: Cell proliferation assay (MTS or SRB), H460. Particulars: Homo sapiens, NCI-H460, 72 h; H460, Lung, 3 days; read-out: IC50 (cell growth inhibition). It is filed as cell-based. Here is the method: as §1, §2, §3
For a further assay, the system named is A549. The assay can be described thus: Cell proliferation assay (MTS or SRB), A549. It is filed as cell-based. Particulars: Homo sapiens, 72 h; A549, Lung, 3 days; read-out: IC50 (cell growth inhibition). Here is the method:
as §1, §2, §3

For another assay, the system named is C33A. The assay can be described thus: Cell proliferation assay (MTS or SRB), C33A. In kind it is cell-based, human. Particulars: Cervical, 3 days, read-out: IC50 (cell growth inhibition). Here is the method: as §1, §2, §3
A further assay relates to SiHa. Nature of the assay: Cell proliferation assay (MTS or SRB), SiHa. In kind it is cell-based, human. Particulars: Cervical, 3 days, read-out: IC50 (cell growth inhibition). Here is the method: as §1, §2, §3
The subject of the next assay is SK-OV-3. Nature of the assay: Cell proliferation assay (MTS or SRB), SK-OV-3. It is filed as cell-based, human. Particulars: SK-OV-3, Ovarian, 3 days; read-out: IC50 (cell growth inhibition). On the procedure: as §1, §2, §3
In a further assay the test system is OVCAR-3. Nature of the assay: Cell proliferation assay (MTS or SRB), OVCAR-3. Particulars: OVCAR-3, Ovarian, 3 days; read-out: IC50 (cell growth inhibition). It is filed as cell-based, human. On the procedure: as §1, §2, §3
For the next assay, the system named is A2058. Nature of the assay: Cell proliferation assay (MTS or SRB), A2058. In kind it is cell-based. The following applies: Homo sapiens, 72 h; A2058, Skin (melanoma), 3 days; read-out: IC50 (cell growth inhibition). On the procedure:
as §1, §2
(§4) Next, cells were stained with 20 μL of 0.2% SRB in 1% acetic acid and incubated at room temperature for 30 minutes and unbound SRB was removed by washing 5 times with 1% acetic acid and air-dried. Finally, bound SRB stain was solubilized in 50 μL of 50 μM Tris buffer before taking an optical density measurement at 570 nm using the BioTek microplate reader. The growth inhibition data were expressed as the percentage of cell survival calculated from the background corrected absorbance. The surviving fraction of cells was determined by dividing the mean absorbance values of the test agent-treated samples by the mean absorbance values of untreated control.
(§5) Raw data were acquired using a BioTek Synergy™ HT Multiple Detection microplate reader and imported into Microsoft Excel for analysis. The average signal of each treatment was calculated from the triplicates after subtracting the blank signals. The percentage survival values were calculated using the following formula: % survival=(average signal of the drug treatment/average signal of untreated controls)×100. The data were finally imported into the Prism 4 software (GraphPad Software, San Diego, Calif.) to generate the dose-activity curves using non-linear regression curve fit and to calculate the IC50 values.

In a further assay the test system is SK-MEL-2. Nature of the assay: Cell proliferation assay (MTS or SRB), SK-MEL-2. In kind it is cell-based. Particulars: Homo sapiens, 72 h; SK-MEL-2, Skin (melanoma), 3 days; read-out: IC50 (cell growth inhibition). On the procedure: as §1, §2, §4, §5

Regarding `COc1cccc2c1C(=O)c1c(O)c3c(c(O)c1C2=O)C[C@@](O)(C(=O)CO)C[C@@H]3O[C@H]1C[C@H](N)[C@H](O)[C@H](C)O1` [Doxorubicin], the IC50 was 74 nM in the assay with Caki-1; 1230 nM in the assay with Caki-2; 60 nM in the assay with SCaBER; 160 nM in the assay on SW 780; 29 nM in the assay on SK-HEP-1; 50 nM with Hep G2.

On to `O=C1[O][Pt]2([NH][C@@H]3CCCC[C@H]3[NH]2)[O]C1=O` [Oxaliplatin], for which the half-maximal inhibitory concentration (IC50) in the assay on HT-29 came to 360 nM; in the assay with HCT-116, 480 nM.

Take `Nc1nc(O)c2ncn(COC(CO)CO)c2n1` [ganciclovir]: the EC50 with BK virus (virus dilution 1:10) is 89000 nM; in the assay on BK virus (virus dilution 1:50) it was greater than 100000 nM; with BK virus (virus dilution 1:100) it was 70800 nM. The “activity against BK virus replication” value in the assay on BK virus (RPTECs, in words) was “essentially inactive”.

Take `Nc1ccn([C@@H]2O[C@H](CO)[C@@H](O)C2(F)F)c(=O)n1` [Gemcitabine]: the IC50 in the assay on PANC-1 came out at 130 nM; in the assay on MIA PaCa-2, 29 nM.

Regarding `CC(=O)O[C@@]12CO[C@@H]1C[C@H](O)[C@@]1(C)C(=O)[C@H](O)C3=C(C)[C@@H](OC(=O)[C@H](O)[C@@H](NC(=O)OC(C)(C)C)c4ccccc4)C[C@@](O)([C@@H](OC(=O)c4ccccc4)[C@H]21)C3(C)C` [Docetaxel], the IC50 in the assay with DU 145 was determined as 2.4 nM; in the assay on PC-3 it was 1.1 nM; in the assay with MDA-231, 2.8 nM; with MCF-7, 15 nM; with H460, 4.2 nM; in the assay with A549, 1.4 nM.

Take `N.N.[Cl][Pt][Cl]` [Cisplatin]: the IC50 in the assay on C33A worked out at 1200 nM; in the assay on SiHa, 15500 nM; in the assay with SK-OV-3, 9200 nM; with OVCAR-3, 4900 nM.

`Cn1nnc2c(C(N)=O)ncn2c1=O` [temozolomide]: the IC50 in the assay with A2058 and in the assay on SK-MEL-2 was greater than 100000 nM throughout.

With `CN(C)/N=N/c1[nH]cnc1C(N)=O` [DTIC, Dacarbazine], the IC50 with A2058 and in the assay on SK-MEL-2 was greater than 100000 nM throughout.
